Laboratory results: ChEMBL document CHEMBL1133774, “'3+1' mixed-ligand oxotechnetium(V) complexes with affinity for melanoma: synthesis and evaluation in vitro and in vivo” (J Med Chem, 2000)

What was measured:
[1] = Partition coefficient of the unprotonated free amine (logP); type: physicochemical; conditions: octanol/water
[2] = Biodistribution after 1 hour of postinjection in blood; type: ADME, organism-based; conditions: in vivo
[3] = Biodistribution after 1 hour of postinjection in brain; type: ADME, organism-based; conditions: in vivo
[4] = Biodistribution after 1 hour of postinjection in heart; type: ADME, organism-based; conditions: in vivo
[5] = Biodistribution after 1 hour of postinjection in kidney; type: ADME, organism-based; conditions: in vivo
[6] = Biodistribution after 1 hour of postinjection in liver; type: ADME, organism-based; conditions: in vivo
[7] = Biodistribution after 1 hour of postinjection in lungs; type: ADME, organism-based, Lung; conditions: in vivo
[8] = Biodistribution after 1 hour of postinjection in melanoma; type: ADME, organism-based; conditions: in vivo
[9] = Biodistribution after 1 hour of postinjection in spleen; type: ADME, organism-based; conditions: in vivo
[10] = Biodistribution after 6 hours of postinjection in brain; type: ADME, organism-based; conditions: in vivo
[11] = Biodistribution after 6 hours of postinjection in heart; type: ADME, organism-based; conditions: in vivo
[12] = Biodistribution after 6 hours of postinjection in kidney; type: ADME, organism-based; conditions: in vivo
[13] = Biodistribution after 6 hours of postinjection in liver; type: ADME, organism-based; conditions: in vivo
[14] = Biodistribution after 6 hours of postinjection in lungs; type: ADME, organism-based, Lung; conditions: in vivo
[15] = Biodistribution after 6 hours of postinjection in melanoma; type: ADME, organism-based; conditions: in vivo
[16] = Biodistribution after 6 hours of postinjection in spleen; type: ADME, organism-based; conditions: in vivo
[17] = Partition coefficient (logD7.4); type: physicochemical; conditions: octanol/water, pH 7.4
[18] = Biodistribution after 1 hour of postinjection in melanoma/blood; type: ADME, organism-based; conditions: in vivo
[19] = Biodistribution after 1 hour of postinjection in melanoma/lungs; type: ADME, organism-based, Lung; conditions: in vivo
[20] = Biodistribution after 6 hours of postinjection in melanoma/blood; type: ADME, organism-based; conditions: in vivo
[21] = Biodistribution after 6 hours of postinjection in melanoma/lungs; type: ADME, organism-based, Lung; conditions: in vivo
[22] = Biodistribution after 6 hours of postinjection in melanoma/spleen; type: ADME, organism-based; conditions: in vivo
[23] = aqueous ionization constant (pKa) determined by HPLC methods; type: physicochemical; conditions: buffer
[24] = Biodistribution after 1 hour of postinjection in muscle; type: ADME, organism-based, Muscle tissue; conditions: in vivo
[25] = Biodistribution after 6 hours of postinjection in blood; type: ADME, organism-based; conditions: in vivo
[26] = Biodistribution after 1 hour of postinjection in melanoma/spleen; type: ADME, organism-based; conditions: in vivo
[27] = Biodistribution after 6 hours of postinjection in muscle; type: ADME, organism-based, Muscle tissue; conditions: in vivo
[28] = Biodistribution after 1 hour of postinjection in melanoma/liver; type: ADME, organism-based; conditions: in vivo
[29] = Biodistribution after 6 hours of postinjection in melanoma/liver; type: ADME, organism-based; conditions: in vivo

logP [1] | ID/g [2] [%] | ID/g [3] [%] | ID/g [4] [%] | ID/g [5] [%] | ID/g [6] [%] | ID/g [7] [%] | ID/g [8] [%] | ID/g [9] [%] | ID/g [11] [%] | ID/g [12] [%] | ID/g [13] [%] | ID/g [14] [%] | ID/g [15] [%] | ID/g [16] [%] | logD [17] [pH7.4] | Ratio [20] | Ratio [22] | pKa [23] | ID/g [25] [%] | Substance | also measured
1.2 | 2.36 | 0.64 | 1.26 | 19.4 | 4.02 | 5.75 | 2.16 | 5.57 | 0.83 | 11.3 | 1.53 | 2.91 | 1.53 | 2.91 | 1 | 1.1 | 1 | 7.2 | – | N-methyl-3-azapentane-1,5-dithiol complex [listing 1 of 6 here] | ID/g [10]: 0.26%; Ratio [18]: < 1; Ratio [19]: < 1; Ratio [21]: < 1
3.5 | 1.26 | 0.08 | 0.66 | 30.4 | 43.3 | 2.6 | 4.95 | 1.15 | 0.46 | 19.3 | 23 | 1.35 | 4.12 | 1.3 | – | 4.2 | 3.2 | – | 0.98 | N-methyl-3-azapentane-1,5-dithiol complex [listing 2 of 6 here] | ID/g [24]: 0.24%; Ratio [18]: 3.9; Ratio [19]: 1.9; Ratio [26]: 4.3; Ratio [21]: 3.1; ID/g [27]: 0.2%
3.7 | 1.34 | 0.13 | 1.17 | 15.3 | 35.3 | 3.27 | 3.26 | 3.35 | 0.73 | 11.7 | 17.7 | 2.07 | 3.23 | 1.25 | 1.1 | 2.2 | 2.6 | 9.9 | 1.44 | N-methyl-3-azapentane-1,5-dithiol complex [listing 3 of 6 here] | ID/g [24]: 0.53%; ID/g [10]: 0.08%; Ratio [18]: 2.4; Ratio [28]: < 1; Ratio [19]: 1; Ratio [26]: < 1; Ratio [29]: < 1; Ratio [21]: 1.6; ID/g [27]: 0.26%
1.7 | 2.08 | 0.18 | 1.84 | 17.9 | 27.3 | 2.73 | 3.23 | 3.44 | 0.84 | 17.9 | 18.7 | 1.96 | 3.13 | 0.7 | 0 | 2.3 | 4.5 | 9.7 | 1.35 | N-methyl-3-azapentane-1,5-dithiol complex [listing 4 of 6 here] | ID/g [24]: 0.57%; ID/g [10]: 0.14%; Ratio [18]: 1.6; Ratio [19]: 4.5; Ratio [21]: 1.2; ID/g [27]: 0.39%
2.7 | 3.49 | 0.24 | 1.74 | 13 | 7.11 | 5.73 | 2.55 | 2.39 | 1.15 | 10.1 | 6.1 | 3.4 | 2.83 | 1.66 | 1.6 | 1.4 | 1.7 | 8.3 | 2.05 | N-methyl-3-azapentane-1,5-dithiol complex [listing 5 of 6 here] | ID/g [24]: 0.78%; Ratio [26]: 1.1
3.6 | 3.28 | 0.32 | 2.09 | 24 | 16.6 | 13.2 | 2.88 | 6.04 | 0.86 | 12.9 | 7.23 | 5.5 | 1.39 | 1.44 | 0.95 | – | < 1 | 9.6 | 1.3 | N-methyl-3-azapentane-1,5-dithiol complex [listing 6 of 6 here] | ID/g [10]: 0.13%
